Data set [1] has as its system B16F1 cells. Briefly: Determination of cytotoxicity by MTT method. The following applies: 10 and 50 μM, 24 h incubation. The data set is classed as cell-based, mouse. Here is the method:
The mouse melanoma B16F1 cells were acquired from the American Type Culture Collection (ATCC, Manassas, Va.) and were cultured in Dulbecco's modification of eagle's medium (DMEM, GIBCO, New York, USA) containing 100 μg/ml penicillin-streptomycin, […] fetal bovine serum (FBS) and maintained at 37° C., 5% CO2. Cytotoxicity levels of the isolated chrysophanol compound from Microsporum sp. on B16F1 cells were measured using MTT (3-(4,5-dimethyl[…])-2,5-diphenyltetrazolium bromide) method. Briefly, B16F1 cells were cultured in 96-well plates at a density of 5×10^3 cells/well. After 24 h, cells were treated with different concentrations (10, 50, 100 μM) of chrysophanol compound. After the next 24 h of incubation, cells were washed two times with PBS and 100 μl of MTT solution (1 mg/ml) was added to each well. After next 4 h of incubation, MTT solution in each well was removed and then 100 μl of dimethyl-sulfoxide (DMSO) were added to solubilize the formazan salt. The optical density was measured at 540 nm by using UV microplate reader (Tecan Austria GmbH, Groedig, Austria). Relative cell viability was calculated compared to the non-treated blank group.

The test system of another data set is mushroom tyrosinase. Briefly: Mushroom tyrosinase assay (tyrosinase inhibitory activity). The data set is classed as biochemical. The following applies: L-tyrosine substrate, different concentrations, 30 min at 37° C. Here is the method:
The inhibitory effect on tyrosinase was measured using the spectrophotometric method, based on the hydroxylation of […] in mushroom tyrosinase assay.
A total of 10 μl of each chrysophanol with different concentrations and 20 μl of mushroom tyrosinase (1000 units/ml) in 50 mM phosphate buffer (pH 6.5) were added to 170 μl of an assay mixture containing a ratio of 10:10:9 of 1 mM L-tyrosine solution, 50 mM phosphate buffer (pH 6.5), and distilled water in a 96-well microplate. After 30 min of incubation at 37° C., the absorbance of the mixture was determined at 490 nm using a microplate reader (Tecan Austria GmbH, Austria).

In data set [2] the test system is B16F1 cells. Briefly: Melanin content in α-MSH-stimulated B16F1 cells. The data set is classed as cell-based, mouse. The note with it: α-MSH 100 nM, 72 h. Here is the method:
The melanin content was determined in accordance a procedure described previously (Hosoi et al., 1985) with slight modifications.
Briefly, B16F1 cells were seeded at a density of 2×10^4 cells per well in 24-well culture plates and then incubated for 24 h. Then, cells were treated with various concentrations ([…]) of chrysophanol. After 1 h, α-MSH (100 nM) was added and incubated for 72 h. Then, cells were washed twice with PBS and dissolved in 1 N NaOH by 30 min of boiling at 60° C. The cell lysates were centrifuged for 5 min at 5000 g and absorbance of the supernatant was measured at 405 nm.

The subject of data set [3] is tyrosinase protein in mouse melanoma B16F1 cells. Briefly: Tyrosinase protein expression by western blot analysis. The data set is classed as cell-based. The note with it: α-MSH. Here is the method: For the western blot analysis, B16F1 cells were treated with different concentrations of chrysophanol compound, added with α-MSH, incubated for a predetermined time, and then the cells were lysed with RIPA buffer (Sigma-Aldrich Corp., St. Louis, USA) and centrifuged. After the centrifugation, the same amount (15 μg) of protein in cell lysate supernatants were analyzed on 10% SDS-PAGE and proteins were blotted on an immuno-blot nitro-cellulose membrane and blocked with 5% BSA in TBS containing 0.1% Tween 20 (TBS-T) for at least 1 h and hybridized with the primary monoclonal antibodies (Santa Cruz Biotechnology Inc., CA, USA). All the primary monoclonal antibodies were diluted with TBS-T (1:1000). The protein bindings were detected using the secondary antibody conjugated to horseradish peroxidase and enhanced using chemiluminiscence ECL assay kit (Amersham Pharmacia Biosciences, England, UK) according to the manufacturer's instructions and imaged on a LAS-3000® Luminescent image analyzer (Fujifilm, Life Science, Tokyo, Japan). T

For `Cc1cc(O)c2c(c1)C(=O)c1cccc(O)c1C2=O` [chrysophanol], in the data set on B16F1 cells [1], the “cytotoxicity (relative cell viability, MTT)” value is on record as “no cytotoxicity”. In addition, in the data set on mushroom tyrosinase, the tyrosinase inhibitory activity result is given as “tyrosinase inhibitory activity was observed by chrysophanol in a dose-dependent manner”. In addition, in the data set on B16F1 cells [2] (B16F1 cells, 50 μM), the “melanin content compared with positive control kojic acid” value was “almost the same as that of kojic acid”. The melanin content result with B16F1 cells [2] (B16F1 cells, 5, 10, 50 μm chrysophanol) was “decrease in melanin content in B16F1 cells by the treatment of chrysphanol in a dose-dependent manner”. Moreover, the tyrosinase protein expression result in data set [3] (20 μM) is on record as “significantly inhibited expression of tyrosinase protein”; in data set [3] (different concentrations), “dose-dependent inhibition of tyrosinase protein expression”.

For the origin of these results see US20140056834A1, “COSMETIC COMPOSITION COMPRISING CHRYSOPHANOL AS ACTIVE INGREDIENT FOR SKIN WHITENING” (PUKYONG NATIONAL UNIVERSITY INDUSTRY-UNIVERSITY C, priority 2012, published 2014).
